“Also recorded” adds a separate entry of the source.
Key:
[1] = Ground state depletion studies (pump-probe mode); format: physicochemical
From the text: The compound 6 is excellent for super-resolution far-field microscopy based on ground-state depletion, such as GSDIM (ground-state depletion followed by individual molecule return; J. Fölling et. al, Nature Meth. 2008, 5, 943-945). Here, “off” and “on” switching of the fluorescence is achieved by transiently shelving the fluorophore into a metastable dark state. Upon the return of only a few isolated single molecules to the fluorescent singlet state, positions of these single light emitting spots can be imaged on a camera and localized with high precision. Upon repeating this procedure and acquiring many pictures, a super-resolution image can be reconstructed from the localized positions. A prerequisite of this method is that >90% of the ensemble of the applied fluorescent dye can be shelved into a dark state at a time (to ensure the detection of isolated fluorescent spots at a time in a densely labeled sample) and that the fluorophore is bright enough, i.e., that it emits enough photons while being in the singlet on-state (to ensure high precision of localization). […] Switching off of the laser leads to a recovery of the fluorescence ensemble within a characteristic recovery time of 50 ms (FIG. 7), indicating the shelving into a metastable dark state. The measurements of FIGS. 6 and 7 were performed in a pump-probe mode, i.e., the residual level of fluorescence was probed with I=100 W/cm^2 for 0.5 ms after strong irradiation for 10 ms with the given laser intensity. Further on, recovery of the fluorescence can be accelerated by addition of UV light, which leads to an optically-induced de-population of the dark states. Already 2 kW/cm^2 of 375 nm light recovers 60% of the fluorescence within an irradiation period of 1 ms (FIG. 8). This is important in cases of samples of low label density where the addition of UV light and thus acceleration of dark state return helps to accelerate image acquisition.

[2] = Chemical and storage stability of dyes and reactive derivatives; format: physicochemical
[3] = Excited state lifetime and FCS study under single molecule conditions; format: physicochemical
physchem = conditions: water
[4] = UV-visible absorption and fluorescence spectra of the dyes of the invention; format: physicochemical
Experimental: UV-visible absorption spectra were recorded on a Varian Cary 4000 UV-Vis spectrophotometer, and fluorescence spectra on a Varian Cary Eclipse fluorescence spectrophotometer. Reactions were carried out upon magnetic stirring in Schlenk flasks equipped with septa or reflux condensers with bubble-counters under argon using a standard manifold with vacuum and argon lines. All NMR spectra are referenced to tetramethylsilane as an internal standard (δ=0 ppm) using the signals of the residual protons of CHCl3 (7.26 ppm) in CDCl3, CHD2OD (3.31 ppm) in CD3OD, HOD (4.75 ppm) in D2O, [D5]acetone (2.04 ppm) in [D6]acetone or [D5]DMSO (2.50 ppm) in [D6]DMSO. Multiplicities of signals are described as follows: s=singlet, br. s=broad singlet, d=doublet, t=triplet, q=quartet, quint=quintet, m=multiplet, mc=centrosymmetrical multiplet. Coupling constants (J) are given in Hz. Multiplicities in the ^13C NMR spectra were determined by APT (Attached Proton Test) measurements. Low resolution mass spectra (electro spray ionization, ESI) were obtained with LCQ and ESI-TOF mass-spectrometers (MICROTOF (focus), Fa. Bruker). The MICROTOF spectrometer equipped with ESI ion source Apollo and direct injector with LC autosampler Agilent RR 1200 was used for obtaining high resolution mass spectra (ESI-HRMS). ESI-HRMS were obtained also on APEX IV spectrometer (Bruker). HPLC system (Knauer): Smartline pump 1000 (2×), UV detector 2500, column thermostat 4000 (25° C.), mixing chamber, injection valve with 20 and 100 μL loop for the analytical and preparative columns, respectively; 6-port-3-channel switching valve; analytical column: Eurospher-100 C18, 5 μm, 250×4 mm, 1.1 mL/min; preparative column: Eurospher-100-5 C18, 5 μm, 250×8 mm, 3.7 mL/min; solvent A: water+0.1% v/v trifluoroacetic acid (TFA); solvent B: MeCN+0.1% v/v TFA; detection at 636 nm (if not stated otherwise). Normal phase analytical TLC was performed on MERCK ready-to-use plates with silica gel 60 (F254) and reversed phase TLC—on RP-18W/UV254 precoated TLC plates (Macherey-Nagel). Preparative TLC was performed on MERCK HPTLC silica gel 60 plates (10×10 cm, layer thickness 0.2 mm). Column chromatography: MERCK silica gel, grade 60, 0.04-0.063 mm or Polygoprep 60-50 C18 (Macherey-Nagel).

[5] = Solubility and polarity of the dyes
[6] = Bleaching measurements by pump-probe cycles; format: physicochemical; conditions: 50 pump-probe cycles, pump intensity 18 kW/cm^2, 633 nm CW, 10 ms pulses, air-oxygen
Experimental: The degree of photodecomposition was evaluated by measuring the decrease in the fluorescence intensity of compound 6 (FIG. 5). […] The pulse duration was 10 ms, and the pulse power 18.3 kW/cm^2 (633 nm CW laser light). Photostability of compound 6 is strong: 50 pump-probe cycles with a pump intensity of 18 kW/cm^2 only bleach 25% of the ensemble allowing for a high number of single-molecule returns, i.e. a high number of single-molecule localizations and thus a final image with high contrast.

[7] = Conjugation with antibodies: labelling degree and quantum yield of conjugates; format: physicochemical
From the text: The degree of labelling achieved with antibodies may strongly vary; typically, compounds 6/6D (taken as their NHS esters 9/9D) attached to the anti-rabbit and anti-mouse antibodies produced a labelling degree from 2.5 up to 6. […] Decrease in fluorescence quantum yields after conjugation with antibodies is normal and well documented [cf.: V. P. Boyarskiy, V. N. Below, R. Medda, B. Hein, M. Bossi, S. W. Hell, Chem. Eur. J. 2008, 14, 1784-1792].

[8] = Fluorescence quantum yield, Atto 633 as reference; format: physicochemical; conditions: Atto 633 as reference (Φfl = 64% in aqueous buffer)
From the text: Moreover, intersystem crossing rates (kISC) and rates of the T1→S0 transitions were also found to be the same for both deuterated and undeuterated substances (see ref. to Table 2).

fluorescence recovered by UV light ([1]; 2 kW/cm^2 of 375 nm light, irradiation period 1 ms): 60%
extent of ground state depletion ([1]; 633 nm laser pulses, ca. 12 kW/cm^2): 97±3%
fluorophores switched off at a time ([1]; I>10 kW/cm^2 CW 633 nm, poly(vinyl alcohol) matrix): 97%
τfl (excited state lifetime) [3]: 3.57^20 ns
solubility (physchem): > 100 mM
Stokes shift ([4]; dyes of the invention): 23 nm
ε · 10^−5 ([4]; solvent H2O): 0.94 M^−1 cm^−1
λmax (abs.) ([4]; solvent H2O): 637 nm
λmax (fl.) ([4]; solvent H2O): 660 nm
polarity [5]: polar; also recorded: hydrophilic
solubility in water ([5]; room temperature): 40-45 mg in 1 mL
fraction of the ensemble bleached [6]: 25%
fluorescence quantum yield of the conjugate ([7]; conjugate with goat anti-rabbit antibodies): 40%
fluorescence quantum yield of the conjugate ([7]; conjugate with sheep anti-mouse antibodies): 48%
Φfl in water [8]: 80%
Structure (SMILES): CN(CCC(=O)O)C(=O)c1c(F)c(F)c(F)c(F)c1C1=c2cc3c4c(c2Oc2c1cc1c5c2CCCN5C(C)(C)C=C1CS(=O)(=O)O)CCC[N+]=4C(C)(C)C=C3CS(=O)(=O)[O-] [Compound 6]
stability in methanol or methanol-containing solutions [2]: formed the corresponding methyl ester; also recorded: rapid esterification of the β-alanine fragment with methanol
solubility in organic solvents [5]: insoluble in diethyl ether, aliphatic, chlorinated, and aromatic hydrocarbons
solubility in water or aqueous buffers [5]: soluble in water; also recorded: soluble in water or aqueous buffers

Source: patent US8580579B2, “Hydrophilic and lipophilic rhodamines for labelling and imaging” (Max-Planck-Gesellschaft zur Foerderung der Wissenschaften …, priority 2009, dated 2013)
